Reference: US5679640A, “Immunosuppressant peptides” (priority 1995, dated 1997)
Non-standard residues stand in square brackets, D forms with d. Residues, ends and D or L forms follow the SMILES beside them. *: point of attachment. Acetyl(1-adamantyl) = O=C(CC12CC3CC(CC(C3)C1)C2)*; Hyp = O=C(O)[C@@H]1C[C@@H](O)CN1; Cha = N[C@@H](CC1CCCCC1)C(=O)O

Legend:
[1] = in vitro; conditions: human, serum
[2] = tested on: DR4w14; experiment: DR-peptide binding assay, DR4w14; design: species or system human; conditions: for MHC Binding Assay DR4w14: Table 3, […]
Experimental: DR-peptide binding assay. Purified DR molecules (10-1,000 nM) were incubated with 10 nM ^125 I-radiolabeled peptide for 48 hours in the presence of added protease inhibitors. […] The final concentrations of protease inhibitors were: 1 mM PMSF, 1.3 mM 1,10-phenanthroline, 73 μM pepstatin A, 8 mM EDTA, 6 mM N-ethyl maleimide, and 200 μM Nα-p-tosyl-L-lysine chloromethyl ketone (TLCK). The final detergent concentration in the incubation mixture was 0.05% NP-40. Several of the peptides screened were hydrophobic and required DMSO to maintain solubility and reduce peptide adsorption to surfaces. In these instances peptide stock solutions were prepared in neat DMSO, and the final DMSO concentration in the incubation mixture was adjusted to 5%. […] The DR-peptide complexes were separated from free peptide by gel filtration on a Sephadex G50 (Pharmacia Fine Chemicals, Piscataway, N.J.) column (23×1.3 cm), as previously described. […] The columns were eluted using PBS (0.5% NP-40, 0.1% NAN3) collected in 1 ml fractions, which were then assayed for radioactivity. The fraction of peptide bound to DR (α) relative to the total amount of offered peptide was determined as the ratio of peptide in the void volume to the total peptide recovered. The α was corrected by subtracting the negative control (^125 I-peptide incubated for two days at room temperature in the presence of protease inhibitors and 120 μg/ml of unlabeled peptide, but in the absence of any DR).
To obtain a figure that positively correlated with the binding affinity, the data were expressed as relative binding values.

[3] = biological target: T1, DR4w4 (Homo sapiens, UniProt P01903+P01911, A100K/A169T/F76Y/I96L/K127E/L162R/M171V/N62H/P40V/Q125Y/R42H/S133A/S149N/S66Y/V115G/V209L/W38E); experiment: DR-peptide binding assay, DR4w4; conditions: for MHC Binding Assay DR4w4: Table 3, binding affinity relative to HA 307-319 = 1
T1 construct: EBV-transformed homozygous cell lines were used as a source of DR molecules; endogenous in cells; host or cells: Preiss or Beh (EBV-transformed human B cell lines, DR4 Dw4 homozygous); lysate purified on a monoclonal antibody LB3.1 column

[4] = biological target: T2, HLA-DR1 (Homo sapiens, UniProt P01903+P01911, A100R/D57E/F55L/F60I/F76Y/I96L/L162R/M171V/P40L/Q125E/R42F/V115G/Y59C); experiment: DR-peptide binding assay, DR1; conditions: for MHC Binding Assay DR1: Table 3, binding affinity relative to HA 307-319 = 1
T2 construct: EBV-transformed homozygous cell lines were used as a source of DR molecules; endogenous in cells; host or cells: LG-2 (EBV-transformed human B cell line, DR1 homozygous); lysate purified on a monoclonal antibody LB3.1 column

[5] = Table 6, binding affinity relative to HA 307-319 = 1

CC(=O)N[C@H](Cc1ccc(O)cc1)C(=O)N[C@@H](C)C(=O)N[C@@H](C)C(=O)N[C@@H](Cc1ccccc1)C(=O)N[C@@H](C)C(=O)N[C@@H](C)C(=O)N[C@@H](C)C(=O)N[C@@H](CCCCN)C(=O)N[C@H](C(=O)N[C@@H](C)C(=O)N[C@@H](C)C(=O)N[C@@H](C)C(=O)N[C@@H](C)C(=O)N[C@H](C)C(=O)O)[C@@H](C)O (Ac-[dY]AAFAAAKTAAAA[dA]-OH)
half-life [1]: 6.77 h | MHC Binding Assay DR4w14 [2]: ++ (affinity greater than 1.0) | MHC Binding Assay DR4w4 [3]: ++ (affinity greater than 1.0) | MHC Binding Assay DR1 [4]: ± (0.1 to 0.50)

C[C@H](NC(=O)[C@H](N)Cc1ccc(O)cc1)C(=O)N[C@@H](C)C(=O)N[C@@H](Cc1ccccc1)C(=O)N[C@@H](C)C(=O)N[C@@H](C)C(=O)N[C@@H](C)C(=O)N[C@@H](CCCCN)C(=O)N[C@H](C(=O)N[C@@H](C)C(=O)N[C@@H](C)C(=O)N[C@@H](C)C(=O)N[C@@H](C)C(=O)N[C@H](C)C(=O)O)[C@@H](C)O (H-[dY]AAFAAAKTAAAA[dA]-OH)
half-life [1]: 8.85 h | MHC Binding Assay DR4w14 [2]: ++ (affinity greater than 1.0) | MHC Binding Assay DR4w4 [3]: ++ (affinity greater than 1.0) | MHC Binding Assay DR1 [4]: ++ (affinity greater than 1.0)

C[C@H](NC(=O)[C@H](N)Cc1ccc(O)cc1)C(=O)N[C@@H](C)C(=O)N[C@@H](Cc1ccccc1)C(=O)N[C@@H](C)C(=O)N[C@@H](C)C(=O)N[C@@H](C)C(=O)N[C@@H](CCCCN)C(=O)N[C@H](C(=O)N[C@@H](C)C(=O)N[C@@H](C)C(=O)N[C@@H](C)C(=O)N[C@@H](Cc1ccccc1)C(=O)N[C@H](C)C(N)=O)[C@@H](C)O (H-[dY]AAFAAAKTAAAF[dA]-NH2)
half-life [1]: 5 h | MHC Binding Assay DR4w14 [2]: ++ (affinity greater than 1.0) | MHC Binding Assay DR4w4 [3]: ++ (affinity greater than 1.0) | MHC Binding Assay DR1 [4]: ++ (affinity greater than 1.0)

C[C@H](NC(=O)CC12CC3CC(CC(C3)C1)C2)C(=O)N[C@@H](C)C(=O)N[C@@H](C)C(=O)N[C@@H](CCCCN)C(=O)N[C@H](C(=O)N[C@@H](C)C(=O)N[C@@H](C)C(=O)N[C@@H](C)C(=O)N[C@@H](Cc1ccccc1)C(=O)N[C@H](C)C(=O)O)[C@@H](C)O ({Acetyl(1-adamantyl)}-AAAKTAAAF[dA]-OH; C-terminus assumed)
half-life at 50 µg/mL [1]: 7.2 h | DR4w14 ([2]; Table 6, […]): ++ (affinity greater than 1.0) | DR4w4 [3, 5]: ++ (affinity greater than 1.0) | DR1 [4, 5]: + (0.51 to 1.0)

C[C@H](NC(=O)[C@H](C)NC(=O)[C@H](C)NC(=O)[C@@H](NC(=O)[C@H](CCCCN)NC(=O)[C@H](C)NC(=O)[C@H](C)NC(=O)[C@H](C)NC(=O)[C@H](CC1CCCCC1)NC(=O)[C@@H](C)N)[C@@H](C)O)C(=O)N[C@@H](C)C(=O)N[C@H](C)C(N)=O [aXAAAKTAAAAa-NH2] (H-[dA][Cha]AAAKTAAAA[dA]-NH2)
MHC Binding Assay DR4w14 [2]: ++ (affinity greater than 1.0) | MHC Binding Assay DR4w4 [3]: ++ (affinity greater than 1.0) | MHC Binding Assay DR1 [4]: ++ (affinity greater than 1.0)

C[C@H](NC(=O)[C@H](N)Cc1ccc(O)cc1)C(=O)N[C@@H](C)C(=O)N[C@@H](CC1CCCCC1)C(=O)N[C@@H](C)C(=O)N[C@@H](C)C(=O)N[C@@H](C)C(=O)N[C@@H](C)C(=O)N1C[C@H](O)C[C@H]1C(=O)N[C@@H](CCCCN)C(=O)N[C@@H](C)C(=O)N[C@@H](C)C(=O)N[C@@H](C)C(=O)N[C@H](C)C(N)=O [yAAXAAAABKAAAa-NH2] (H-[dY]AA[Cha]AAAA[Hyp]KAAA[dA]-NH2)
MHC Binding Assay DR4w14 [2]: ++ (affinity greater than 1.0) | MHC Binding Assay DR4w4 [3]: ++ (affinity greater than 1.0) | MHC Binding Assay DR1 [4]: ++ (affinity greater than 1.0)

C[C@H](NC(=O)[C@H](N)Cc1ccc(O)cc1)C(=O)N[C@@H](C)C(=O)N[C@@H](CC1CCCCC1)C(=O)N[C@@H](C)C(=O)N[C@@H](C)C(=O)N[C@@H](C)C(=O)N[C@@H](C)C(=O)N[C@H](C(=O)N[C@@H](CCCCN)C(=O)N[C@@H](C)C(=O)N[C@@H](C)C(=O)N[C@@H](C)C(=O)N[C@H](C)C(N)=O)[C@@H](C)O [yAAXAAAATKAAAa-NH2] (H-[dY]AA[Cha]AAAATKAAA[dA]-NH2)
MHC Binding Assay DR4w14 [2]: ++ (affinity greater than 1.0) | MHC Binding Assay DR4w4 [3]: ++ (affinity greater than 1.0) | MHC Binding Assay DR1 [4]: ++ (affinity greater than 1.0)

CC(C)C[C@H](NC(=O)[C@@H](NC(=O)[C@H](C)NC(=O)[C@H](C)NC(=O)[C@H](C)NC(=O)[C@H](C)NC(=O)[C@H](CC1CCCCC1)NC(=O)[C@H](C)NC(=O)[C@H](C)NC(=O)[C@H](N)Cc1ccc(O)cc1)[C@@H](C)O)C(=O)N[C@@H](CCCCN)C(=O)N[C@@H](C)C(=O)N[C@@H](C)C(=O)N[C@H](C)C(N)=O [yAAXAAAATLKAAa-NH2]
MHC Binding Assay DR4w14 [2]: ++ (affinity greater than 1.0) | MHC Binding Assay DR4w4 [3]: ++ (affinity greater than 1.0) | MHC Binding Assay DR1 [4]: ++ (affinity greater than 1.0)

C[C@H](NC(=O)[C@H](N)Cc1ccc(O)cc1)C(=O)N[C@@H](C)C(=O)N[C@@H](CC1CCCCC1)C(=O)N[C@@H](C)C(=O)N[C@@H](C)C(=O)N[C@@H](C)C(=O)N[C@@H](CCCCN)C(=O)N[C@H](C(=O)N[C@@H](C)C(=O)N[C@@H](C)C(=O)N[C@@H](C)C(=O)N[C@@H](C)C(=O)N[C@H](C)C(N)=O)[C@@H](C)O [yAAXAAAKTAAAAa-NH2]
MHC Binding Assay DR4w14 [2]: ++ (affinity greater than 1.0) | MHC Binding Assay DR4w4 [3]: ++ (affinity greater than 1.0) | MHC Binding Assay DR1 [4]: ++ (affinity greater than 1.0)
